Results: publication PMC8378262 (Journal of controlled release : official journal of the …, 2021)
“And” between values parts separate entries of the source, which are not always exact repeats. Identical values can stand only once. Like-named read-outs stand apart in the source and are kept apart here.

Key:
[1] = system: PAH-SMC; assay: Antiproliferative effects, Cell Counting Kit-8, PAH-SMC; format: cell-based, human
[2] = system: N-SMC; assay: Antiproliferative effects, Cell Counting Kit-8, N-SMC; format: cell-based, human
[3] = system: PAH-EC; assay: cells; format: cell-based; conditions: Homo sapiens, 24 h
[4] = system: cGMP; assay: Intracellular cGMP; format: cell-based, human; conditions: for intracellular level of cGMP: PAH-SMCs, 0.1–0.001 μM
[5] = system: cGMP; assay: Intracellular cGMP; format: cell-based, human; conditions: PAH-ECs
[6] = system: phospho-MYPT1; assay: Myosin phosphatase-targeting protein phosphorylation; format: cell-based, human; conditions: PAH-SMCs, 1.0 μM, 24 h
[7] = system: phospho-MYPT1; assay: as above; format: cell-based, human; conditions: PAH-ECs, 1.0 μM
[8] = Pharmacokinetics in rat plasma after intravenous administration; format: in vivo, Sprague Dawley rats
[9] = target: ROCK-II (Homo sapiens, UniProt O75116); assay: Cell-free Rho-associated kinase activity; format: biochemical
[10] = target: T1, bactosomal human NADPH-CYP reductase (Homo sapiens, UniProt P16435); assay: Enzymatic reduction assay of FasPRO, LC-MS/MS; format: in vitro ADME
T1 sequence (P16435 1-677): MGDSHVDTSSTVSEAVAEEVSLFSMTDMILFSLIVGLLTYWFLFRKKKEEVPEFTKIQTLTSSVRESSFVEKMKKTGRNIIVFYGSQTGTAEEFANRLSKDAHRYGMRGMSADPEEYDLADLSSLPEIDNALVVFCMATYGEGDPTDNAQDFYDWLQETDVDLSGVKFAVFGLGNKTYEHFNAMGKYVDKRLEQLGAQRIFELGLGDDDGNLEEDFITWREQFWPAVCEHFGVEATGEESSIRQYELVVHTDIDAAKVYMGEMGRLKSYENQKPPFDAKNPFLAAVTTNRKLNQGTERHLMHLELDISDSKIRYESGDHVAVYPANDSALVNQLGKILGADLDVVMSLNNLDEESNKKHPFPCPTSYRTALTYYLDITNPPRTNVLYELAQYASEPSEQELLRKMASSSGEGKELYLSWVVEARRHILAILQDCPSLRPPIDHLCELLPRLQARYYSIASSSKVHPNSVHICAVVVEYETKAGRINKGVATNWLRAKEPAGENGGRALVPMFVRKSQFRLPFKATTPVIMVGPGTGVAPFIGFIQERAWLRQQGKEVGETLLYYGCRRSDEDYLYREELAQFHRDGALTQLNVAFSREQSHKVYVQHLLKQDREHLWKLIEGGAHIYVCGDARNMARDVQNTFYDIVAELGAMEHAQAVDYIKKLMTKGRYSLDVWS

[11] = system: PAH-SMCs; assay: Bioreduction of FasPRO in cultured PAH-SMCs; format: cell-based, human
[12] = system: PAH-ECs; assay: Bioreduction of FasPRO in cultured PAH-ECs; format: cell-based, human; conditions: 24 h incubation
[13] = Homo sapiens, 24 h, read-out: PAH-SMC (IC50) Normoxia, normoxia, 24 h treatment
[14] = Homo sapiens, 24 h, read-out: N-SMC (IC50) Normoxia
[15] = read-out: PAH-EC (IC50) Hypoxia
[16] = read-out: PAH-EC (IC50) Normoxia
[17] = male, Sprague-Dawley, rat, plasma, iv, 3 mg/kg

Chain of ROCK-II (O75116 whole entry, species assumed): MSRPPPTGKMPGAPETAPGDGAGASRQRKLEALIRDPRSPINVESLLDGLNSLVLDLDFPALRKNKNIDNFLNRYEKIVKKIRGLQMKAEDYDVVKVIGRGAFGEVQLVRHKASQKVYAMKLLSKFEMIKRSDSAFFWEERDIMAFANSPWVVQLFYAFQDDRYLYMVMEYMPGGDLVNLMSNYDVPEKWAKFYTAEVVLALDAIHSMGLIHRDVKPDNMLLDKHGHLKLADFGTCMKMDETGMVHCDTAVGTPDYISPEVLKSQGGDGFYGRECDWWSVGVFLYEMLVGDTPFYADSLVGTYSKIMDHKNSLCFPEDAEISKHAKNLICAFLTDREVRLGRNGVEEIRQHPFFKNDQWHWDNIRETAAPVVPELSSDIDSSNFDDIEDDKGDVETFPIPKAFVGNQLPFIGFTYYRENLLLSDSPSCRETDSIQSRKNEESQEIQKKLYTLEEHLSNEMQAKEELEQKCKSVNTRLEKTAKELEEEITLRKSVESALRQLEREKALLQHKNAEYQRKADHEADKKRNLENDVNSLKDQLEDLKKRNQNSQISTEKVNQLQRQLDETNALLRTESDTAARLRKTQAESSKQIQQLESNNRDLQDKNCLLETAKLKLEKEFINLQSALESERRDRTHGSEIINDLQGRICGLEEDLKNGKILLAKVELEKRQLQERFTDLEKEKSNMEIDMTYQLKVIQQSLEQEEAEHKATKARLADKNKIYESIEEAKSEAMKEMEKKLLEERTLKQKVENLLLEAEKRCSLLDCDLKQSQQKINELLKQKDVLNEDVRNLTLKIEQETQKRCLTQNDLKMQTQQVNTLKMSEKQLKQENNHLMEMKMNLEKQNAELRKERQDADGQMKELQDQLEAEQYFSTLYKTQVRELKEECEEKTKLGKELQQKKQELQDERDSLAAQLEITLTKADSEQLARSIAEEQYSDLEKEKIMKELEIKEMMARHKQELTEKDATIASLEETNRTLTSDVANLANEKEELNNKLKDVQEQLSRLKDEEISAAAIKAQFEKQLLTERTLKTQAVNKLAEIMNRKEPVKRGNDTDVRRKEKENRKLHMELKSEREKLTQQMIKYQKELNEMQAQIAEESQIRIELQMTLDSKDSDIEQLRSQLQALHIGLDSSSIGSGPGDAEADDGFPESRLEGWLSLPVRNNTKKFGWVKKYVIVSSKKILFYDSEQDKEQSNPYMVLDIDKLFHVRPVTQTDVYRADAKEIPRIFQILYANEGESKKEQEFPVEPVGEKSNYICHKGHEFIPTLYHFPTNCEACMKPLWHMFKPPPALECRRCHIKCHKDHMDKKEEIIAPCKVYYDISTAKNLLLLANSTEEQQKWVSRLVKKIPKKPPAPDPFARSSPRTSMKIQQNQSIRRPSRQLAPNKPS

Row | Structure (SMILES) | IC50 [1, 13] | IC50 [2, 14] | IC50 [3, 15] | IC50 [3, 16] | intracellular level of cGMP ([4]; hypoxia) | intracellular level of cGMP ([4]; normoxia) | intracellular level of cGMP ([5]; hypoxia) | intracellular level of cGMP ([5]; normoxia) | hypoxia-driven phosphorylation of MYPT1 [6] | hypoxia-driven phosphorylation of MYPT1 [7] | AUC(0-inf) [8, 17] | C0 [8, 17] | Vd [8, 17] | clearance [8, 17] | further results
1 | O=S(=O)(c1cccc2cnccc12)N1CCCNCC1 [Fasudil, reference compound] | 4.9 µM | 2.8 ± 0.6 µM | 34.1 ± 5.9 µM | 16 ± 1.2 µM | dose-dependently increased | dose-dependently increased | dose-dependently increased | dose-dependently increased | reversed the process | reversed the process | 363 ± 54.1 ng·h/mL | 1360 ± 368 ng/mL | 0.9 ± 0.2 L/kg | 46.7 mL/min/kg | IC50 ([1]; read-out: PAH-SMC (IC50) Normoxia, normoxia, 24 h treatment): 4.95 ± 1.3 µM; IC50 ([2]; read-out: N-SMC (IC50) Hypoxia, hypoxia (0.1% O2), 24 h treatment): 1.68 ± 0.5 µM; increase in cGMP levels in PAH-SMCs compared to PAH-ECs ([4]; fasudil preincubation): 5 fold
2 | O=c1[nH]ccc2c(S(=O)(=O)N3CCCNCC3)cccc12 [FasOH, reference compound] | – | – | – | – | – | – | – | – | – | – | – | – | – | – | inhibition of the kinase activity of ROCK-II (comparison in words) ([9]; 1.0 mU ROCK-II, 10 μM ATP): equal potency; IC50 ([1]; Homo sapiens, 24 h, read-out: PAH-SMC (IC50) Hypoxia): 10.3 ± 2.6 µM; IC50 ([1]; Homo sapiens, 24 h, read-out: PAH-SMC (IC50) Normoxia): 6.9 µM; maximum plasma concentration (Cmax) of FasOH as share of that of the parent drug ([8]; rats given intravenous fasudil 3 mg/kg): 37~52%
3 | O=[N+]([O-])c1ccc(COc2nccc3c(S(=O)(=O)N4CCCNCC4)cccc23)cc1 [FasPRO, 5-((1,4-diazepan-1-yl)sulfonyl)-1-((4-nitrobenzyl)oxy)isoquinoline] | 53.5 µM | 248 ± 28.9 µM | 25.4 ± 4.8 µM | 2720 ± 50.9 µM | dose-dependently increased | did not improve cGMP secretion | dose-dependently increased | did not improve cGMP secretion | reversed the process | reversed the process | 951 ± 137 ng·h/mL | 471 ± 122 ng/mL | 10.1 ± 4 L/kg | 18.3 mL/min/kg | reduction in ROCK-II kinase activity on addition of the 4-nitrobenzyl group to the hydroxyl group of FasOH ([9]; relative to FasOH): 15 fold; prodrug converted into FasOH or fasudil ([10]; hypoxia (0.1% O2), after 24 h of reaction): More than 60%; reduction of FasPRO by the reductase ([10]; normoxia, any of the time points): did not occur; activation of FasPRO ([11]; 0.1% O2): activated; activation of FasPRO ([11]; 1% and 10% O2): not at 1% and 10% O2; fragments of FasPRO after bioreduction in cell lysate ([11]; 12 h, hypoxia): FasOH (major fragment) or fasudil (minor fragment); content of FasPRO in cells ([11]; hypoxia, 24 h incubation, versus normoxia): decreased; fragmentation of FasPRO in cells ([11]; normoxia, 24 h incubation): did not undergo significant fragmentation; content of FasPRO in cells ([12]; hypoxia, versus normoxia): decreased; fragmentation of FasPRO in cells ([12]; normoxia): did not undergo significant fragmentation; concentrations at which an antiproliferative effect was observed ([1]; normoxia, cells not given): > 100 µM; IC50 ([2]; Homo sapiens, 24 h, read-out: N-SMC (IC50) Hypoxia): 1.04 ± 0.1 µM; phospho-MYPT-1 level ([6]; normoxia): did not cause any changes; phospho-MYPT-1 level ([7]; normoxia): did not cause any changes; terminal half-life of FasPRO relative to that of fasudil ([8]; Sprague-Dawley rats, intravenous, 3 mg/kg): 36 fold and ~ 36 fold; half-life ([8]; male, Sprague-Dawley, rat, plasma, iv, 3 mg/kg, t1/2, Sprague-Dawley rats): > 7 h; fasudil in the blood of FasPRO-treated rats ([8]; remaining two of four rats, FasPRO iv 3 mg/kg): not detectable
